From US6287572A, “Anti-HIV peptides and proteins” (Oxford Biomedica (UK) Limited, priority 1997, dated 2001)
Entries after “also recorded” stand apart in the source; their conditions may differ.

How the values were obtained:
HIV-1 = conditions: Neidrig et al 1994; cited from earlier work
HIV-1IIIB virus [1] = experiment: Peptide inhibition experiment, U937 culture; format: cell-based; conditions: peptide 200 mg/ml, RT activity in supernatant
Method: (§1) A series of overlapping p17 derived 1 5mer peptides were used. The peptides were dissolved in phosphate-buffered saline pH 7.0 and used at a final concentration of 200 mg/ml. For each peptide, 2×10^5 U937 cells were pelleted and resuspended in […] media containing […] of a stock of HIV-1IIIB virus (giving a multiplicity of infection of 0.25) and 200 mg/ml of the appropriate peptide. Following incubation for two days, the cells were pelleted and resuspended in fresh media containing peptide. After a further three days incubation, […] of the culture was removed and added to 1×10^5 C8166 cells in a total volume of […] with the appropriate peptide. Samples of both the U937 and C8166 culture supernatants were taken after a further two and three days incubation and assayed for RT activity. In addition, the C8166 cells were visually inspected for the appearance of syncytia on day three.

HIV-1IIIB virus [2] = experiment: Peptide inhibition experiment, C8166 culture; format: cell-based; conditions: peptide 200 mg/ml, RT activity in supernatant
Method: as §1

Substance: 23 to 46: p17 peptide spanning residues 23 to 46 of previous studies (Neidrig et al 1994) (GGKKKYKLKHIVWASRELERFAVN; Matrix protein p17; UniProt P04591 24-47, looked up, fragment)
- inhibitory activity of peptide in previous studies (HIV-1): no inhibitory activity; also recorded: no inhibitory effect

Substance: 47 to 59: inhibitory p17 peptide spanning residues 47 to 59 of previous studies (Neidrig et al 1994) (PGLLETSEGCRQI; Matrix protein p17; UniProt P04591 48-60, looked up, fragment)
- inhibitory activity of peptide in previous studies (HIV-1): inhibitory

Substance: 51-65: p17-derived 15mer peptide, corresponding p17 residues 51-65 (ETSEGCRQILGQLQP; Matrix protein p17; UniProt P04591 52-66, looked up, fragment) [Mutant 51-65]
- RT titer, U937 day 7 (HIV-1IIIB virus [1]; day 7): 14.8 × 10^3 cpm/ml
- RT titer, U937 day 8 (HIV-1IIIB virus [1]; day 8): 47.0 × 10^3 cpm/ml
- RT titer, C8166 day 2 (HIV-1IIIB virus [2]; day 2): 19.9 × 10^3 cpm/ml
- RT titer, C8166 day 3 (HIV-1IIIB virus [2]; day 3): 33.6 × 10^3 cpm/ml
